The text below walks through data of US20240083873A1, “PYRIMIDINE CARBOXAMIDE COMPOUND AND APPLICATION THEREOF” (SHANGHAI MEIYUE BIOTECH DEVELOPMENT CO., LTD, priority 2020, published 2024).

The target of data set [1] is recombinant human Vanin-1 (Homo sapiens (Human), UniProt O95497). Put plainly: Vanin-1 recombinant enzyme activity inhibition assay. It is filed as biochemical. Particulars: Pantetheine 7-amino-4-trifluoromethylcoumarin substrate 45 μM, data at the 30th minute. As for the experimental part:
1. Vanin-1 Recombinant Enzyme Activity Inhibition Assay
A certain mass of the compound was weighed precisely, and prepared with DMSO and reaction buffer (50 mM Tris base, 50 mM KCl, 1.6 mM cysteamine, 0.005% Brij 35, pH 8.0, prepared when using) to a maximum concentration of 10000 nM, then diluted in a 4-fold gradient, and prepared into 10 compound working solutions with different concentrations; • for the activity inhibition reaction of recombinant human Vanin-1 (Biorab, JN0618), 2.5 μL of compound working solution and 5 μL of recombinant human Vanin-1 protein were first mixed. […] Raw data at the 30th minute were collected for data processing and analysis, then the concentration-effect curve was fitted with GraphPad Prism 8 software, and the IC50 of the compound concentration was calculated.

The nature of data set [2]: In vivo pharmacokinetic evaluation in mice. Particulars: C57BL6 mice; for Peak concentration Cmax: plasma. An excerpt: 2. In Vivo Pharmacokinetic Evaluation in Mice
To detect pharmacokinetic parameters of the compounds of the present disclosure in C57BL6 mice
The vehicle used in the experiment was: DMSO:Solutol:PBS=5%:25%:70% (v/v/v). Preparation method: The required compound was weighed accurately, added with a certain volume of DMSO in a certain proportion, vortex-mixed until completely dissolved, then added successively with Solutol and PBS according to the above proportion, and mixed well. The vehicles used in the intravenous (iv) administration group and oral (po) administration group were the same vehicles in the experiment. The intravenous dose was 1 mpk and the oral dose was 2 mpk. Experimental blood collection time points: IV group: 0.083, 0.25, 0.5, 1, 2, 4, 7, 24 h. PO group: 200 μL of whole blood was collected from jugular vein at each time point of 0.25, 0.5, 1, 2, 4, 7 and 24 h, anticoagulated with EDTA-K2, and immediately centrifuged at 4000 rpm for 5 minutes at 4° C. The supernatant was taken and the samples were frozen and stored in a refrigerator at −80° C. Processing of plasma samples: The sample was precipitated with ACN/MeOH (1:1, v/v) precipitant containing internal standard, then centrifuged at 14000 rpm for 5 minutes. The supernatant was taken into LC-MS/MS (AB Triple Quard 5500) for analysis to obtain plasma concentrations, and parameters were calculated by the non-compartmental model of Winnolin 8.1 version.

Where [3] appears, read: intragastric administration group po, 2 mpk.
Setting [4] is: intravenous injection group iv, 1 mpk.

recombinant human Vanin-1, sequence (O95497 22-513): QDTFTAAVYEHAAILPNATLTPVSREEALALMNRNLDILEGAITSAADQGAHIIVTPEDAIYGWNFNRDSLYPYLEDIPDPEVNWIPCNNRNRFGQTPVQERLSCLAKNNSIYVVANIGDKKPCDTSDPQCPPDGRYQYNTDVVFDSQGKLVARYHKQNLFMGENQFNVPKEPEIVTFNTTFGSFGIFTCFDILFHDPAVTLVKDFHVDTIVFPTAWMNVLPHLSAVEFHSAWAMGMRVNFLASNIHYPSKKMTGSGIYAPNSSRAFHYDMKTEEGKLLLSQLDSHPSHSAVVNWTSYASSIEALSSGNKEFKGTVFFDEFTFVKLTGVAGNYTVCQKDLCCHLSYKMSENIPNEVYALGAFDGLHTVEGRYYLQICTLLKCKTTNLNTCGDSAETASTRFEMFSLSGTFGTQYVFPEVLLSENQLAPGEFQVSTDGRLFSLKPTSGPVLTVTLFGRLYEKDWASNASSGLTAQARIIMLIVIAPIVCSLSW

Regarding `O=C(c1cnc(NC2CCc3ncc(Br)cc32)nc1)N1CCC2(CCOCC2)C1` (centres unmarked) [Compound 23], the 50% inhibitory concentration (IC50) (in general, the point on the concentration scale where inhibition reaches its midpoint) in data set [1] was found to be 1.7 nM.

For `Cc1cnc2c(c1)C(Nc1ncc(C(=O)N3CCC4(CCOCC4)C3)cn1)CC2` (centres unmarked) [Compound 21], in data set [1], the IC50 came out at 6.9 nM.

Consider `CCC1(CC)CCN(C(=O)c2cnc(N[C@@H]3CCc4ncccc43)nc2)C1` [Compound 13], for which, in data set [1], the IC50 amounted to 4.2 nM.

For `Cc1ccc2c(n1)CCC2Nc1ncc(C(=O)N2CCC3(CCOCC3)C2)cn1` (centres unmarked) [Compound 19], in data set [1], the IC50 worked out at 2.9 nM. For the same compound, in data set [2] (setting [3]), the “Area under the curve AUC0-7h” value amounted to 1459.29 ng·h/mL, the “Clearance rate CL” value stood at 21.9452 mL/min/kg, the “Distributed solvent Vd” value was 2.91 L/kg and the “Half-life T1/2” value was 1.52 h. Also, the “Peak concentration Cmax” value in data set [2] (setting [3]) is listed as 766.60 ng/mL.

As for `O=C(c1cnc(NC2CCc3ncccc32)nc1)N1CCC2(CCOCC2)C1` (centres unmarked) [Compound 2], the IC50 in data set [1] was 8.9 nM.

`CC(=O)N(C)C1CCN(C(=O)c2cnc(N[C@@H]3CCc4ncccc43)nc2)C1` (some centres unmarked) [Compound 17]: the IC50 in data set [1] came to 0.6 nM. For the same compound, in data set [2] (setting [3]), the “Area under the curve AUC0-7h” value was 684.31 ng·h/mL, the “Clearance rate CL” value worked out at 48.6622 mL/min/kg, the “Distributed solvent Vd” value was 4.55 L/kg and the “Half-life T1/2” value was found to be 1.05 h. Further, the “Peak concentration Cmax” value in data set [2] (setting [3]) is recorded as 539.37 ng/mL. Further, in data set [2] (setting [4]), the “Area under the curve AUC0-7h” value worked out at 557.60 ng·h/mL, the “Clearance rate CL” value turned out to be 33.857 mL/min/kg, the “Distributed solvent Vd” value is reported as 2.60 L/kg and the “Half-life T1/2” value was 0.93 h. The “Peak concentration Cmax” value in data set [2] (setting [4]) is listed as 742.33 ng/mL. Moreover, the “Bioavailability F %” value in data set [2] (po 2 mpk vs iv 1 mpk) is listed as 61.4%.

On to `CCC(=O)N(C)C1CCN(C(=O)c2cnc(N[C@@H]3CCc4ncccc43)nc2)C1` (some centres unmarked) [Compound 26], for which the IC50 in data set [1] stood at 2 nM.
